Experimental data reported in US9907759B2, “Sildenafil-free base-containing film preparation and method for producing same” (CTC Bio, Inc., priority 2011, dated 2018).
Where a name gives a salt, the structure may show the parent alone.

Experiments:
Type in all cases: physicochemical
[1] = Solubility in water
[2] = Visual characteristics of the film prepared (particles, transparency)
Experimental: (§1) A preparative experimentation was conducted to analyze the particle size of a sildenafil free base and the characteristics thereof in several film preparations depending on the rpm conditions (3,000 or 5,000 rpm) of a homogenizer (AGI homomixer) and homogenization times (0, 10 and 30 minutes), the film preparations having the same compositions as the Examples shown in Table 6.
(§2) In order to prepare films containing sildenafil free base particles having a smaller size, the film preparation having the same compositions as the Example 8 shown in Table 6 were subject to homogenization using a homogenizer (IKA) at 10,000 rpm for 1 hour.

[3] = Particle size of sildenafil free base, Mastersizer 2000 (Malvern), wet method
Experimental: as §1
First, the raw materials of a sildenafil free base before homogenization were measured for their particle size using Mastersizer 2000 (Malvern) by a wet method, and the results thereof are shown in Table 1. The same procedure was repeated three times.
The particle size changes of a sildenafil free base depending on homogenization times were measured under the condition of a larger scale than the previous experimentation. The homogenization was carried out using a homogenizer (IKA) at 5,000 rpm with increasing homogenization time. The sildenafil free base-containing film preparations used in the homogenization had the same compositions as the Examples shown in Table 6.
as §2

[4] = after homogenization 3000 rpm, 30 minutes
[5] = after homogenization 5000 rpm, 10 minutes
[6] = sildenafil free base raw material before homogenization (Initial)

| SMILES | Solubility in water [1] | Characteristics ([2]; 3000 rpm, 30 minutes) | Characteristics ([2]; 5000 rpm, 10 minutes) | Particle size D10 [3, 4] [μm] | Particle size D90 [3, 4] [μm] | Particle size D10 [3, 5] [μm] | Particle size D90 [3, 5] [μm] | D10 [3, 6] [μm] | D90 [3, 6] [μm] |
| --- | --- | --- | --- | --- | --- | --- | --- | --- | --- |
| CCCc1nn(C)c2c(=O)[nH]c(-c3cc(S(=O)(=O)N4CCN(C)CC4)ccc3OCC)nc12 [sildenafil citrate] | can dissolve in water |  |  |  |  |  |  |  |  |
| CCCc1nn(C)c2c(=O)[nH]c(-c3cc(S(=O)(=O)N4CCN(C)CC4)ccc3OCC)nc12 [sildenafil free base] | practically insoluble in water | Particles were visually observed | Particles were scarcely observed | 8.91 | 109.66 | 8.59 | 85.99 | 13.48 | 281.74 |
